From patent publication US10087448B2, “Synthetic lethality in cancer” (The Governors of the University of Alberta, priority 2010, dated 2018)
Entries after “also recorded” stand apart in the source; their conditions may differ.

Tests used:
[1] = test system: A549(Scramble) and A549δPNKP cells; test: Mode of cell death determination (Hoescht 33342, Ethidium Homodimer III, Annexin V-FITC triple stain); assay type: cell-based, human; settings: 100 μM, 24 to 72 hours
Description: A549(Scramble) or A549δPNKP cells were grown on coverslips in complete DMEM/F12 and were either transfected with ASN or SHP-1. Another control subjected these cell lines to 100 μM 5-(p-Bromobenzylidine)-α-isopropyl-4-oxo-2-thioxo-3-thiozolidineacetic acid (BH3I-1, Sigma-Aldrich, Oakville, ON), which is a known apoptosis inducer. The cells were grown under each condition for the indicated length of time before being subjected to a triple stain of Hoescht 33342, Ethidium Homodimer III and Annexin V-FITC (Biotium, Hayward, Calif.). Hoescht 33342 is an uncharged DNA stain that will stain the nuclei of healthy and non-healthy cells alike, however, Ethidium Homodimer III is a highly positively charged DNA stain that cannot readily enter cells unless there is a loss of membrane integrity. […]
To identify the mechanism in which cells undergo synthetic lethality upon simultaneous disruption of SHP-1 and PNKP, A549(Scramble) and A549δPNKP cells were grown on coverslips and transiently transfected with ASN or SHP-1 siRNA (FIGS. 21A and 21C, respectively). […] Cells were then simultaneously stained with Hoescht 33342, EthidiumHomodimer III and Annexin V-FITC, which fluoresce at different wavelengths (absorbance/emission; 350/461 nm, 528/617 nm, and 492/514 nm, respectively). […]

[2] = test system: Karpas 299 cells (naturally SHP-1−/−); test: Cell proliferation assay with ALCL cell lines (Alamar Blue), PNKP inhibition; assay type: cell-based; settings: Karpas 299 (SHP-1−/−), approximately 10 μM, 12-16 days
Description: (§1) Karpas 299 or SUPM2 cells were plated in 96-well format at a concentration of 5,000 cells/100 μL in complete RPMI. Increasing concentrations of the PNKP inhibitor A12B4C3 was added to each well at a constant concentration of DMSO and left to incubate for 12-16 days. 11 μL of 440 μM Alamar Blue was then loaded onto the plates and left to incubate for 24-48 hours after which fluorescence was determined as described above.

[3] = test system: SUPM2 cells (naturally SHP-1+/+); test: as above; assay type: cell-based; settings: SUPM2 (SHP-1+/+), approximately 10 μM, 12-16 days
Description: as §1

HCT116 cells = test: Colony-forming assay with γ-radiation (synthetic sickness); assay type: cell-based
Description: (§2) The effect of survival of simultaneous disruption of two proteins was conducted using the clonogenic survival assay. To allow cells time to adhere to the plates, cells were seeded 24 h in advance. Cells were treated with the PNKP inhibitor A12B4C3 for 9-14 consecutive days in triplicate at 0 μM, 0.1 μM, 1 μM, and 10 μM final concentration where 100 cells were plated for the 0 μM, 0.1 μM and 1 μM concentration groups and 300 cells in the 10 μM concentration group. Colonies were then stained with a crystal violet containing 20% methanol for one hour after which the plates were washed in warm water and left to dry overnight. Colonies of 50+ cells were then counted using an automated colony counter (Oxford Optronix, Oxford, UK).
For the indicated colony-forming assays, cells were treated with 0, 1, 2, 4, 6, or 8 Gy of γ-radiation (^60Co Gammacell; Atomic Energy of Canada Limited, Ottawa, Canada).
These HCT116 cells were then subjected to additional testing to determine if disruption of PNKP in PTEN negative cells would hypersensitize these cells to ionizing radiation. These assays to determine ‘synthetic sickness’ were done using […] A12B4C3, which was added to the cells 24 h before irradiation in a colony-forming assay. After one day the cells were subjected to 0, 1, 2, 4, 6, or 8 Gy of γ-radiation. […]

[4] = test system: PC3 cells reconstituted with WT PTEN or p.K289E; test: Survival of PC3 cells in response to PNKP inhibition; assay type: cell-based; settings: WT PTEN and p.K289E reconstituted PC3, 12-16 days
Description: as §2
(§3) To investigate the feasibility of taking advantage of the newly identified partnership between PTEN and PNKP, we subjected the prostate cancer cell line, PC3 (naturally PTEN^−/−) to an increasing concentration of the PNKP inhibitor A12B4C3 (3) over a period of 12-16 days.

[5] = test system: PC3 cell lines lacking functional PTEN (p.R55fs*1, WT RAD51, p.BABE.puro, p.C124S, PC3 parental); test: as above; assay type: cell-based; settings: doses ≥10 μM, 12-16 days
Description: as §2, §3

[6] = test system: HCT116 PTEN wildtype cells (HCT116 parental and Neo124 vector only); test: Colony forming assay under PNKP inhibition; assay type: cell-based; settings: PTEN proficient HCT116, increasing concentrations
Description: as §2

[7] = test system: HCT116 PTEN deleted cells (#22 and #35); test: Colony forming assay under PNKP inhibition; assay type: cell-based; settings: PTEN deleted HCT116, increasing concentrations
Description: as §2

SMILES | apoptotic cells [1] | survival [2] | survival [3] | sensitivity to ionizing radiation (HCT116 cells; PNKP independently disrupted (PTEN proficient HCT116), 2 M A12B4C3 added 24 h before 0-8 Gy γ-radiation) | sensitivity to ionizing radiation (HCT116 cells; PTEN negative HCT116, 2 M A12B4C3 added 24 h before 0-8 Gy γ-radiation) | survival [4] | survival [5] | survival under PNKP inhibition [6] | survival under PNKP inhibition [7]
CC(C)C(C(=O)O)N1C(=O)C(=Cc2ccc(Br)cc2)SC1=S (stereo not drawn) [BH3I-1, 5-(p-Bromobenzylidine)-α-isopropyl-4-oxo-2-thioxo-3-thiozolidineacetic acid] | substantial increase in the occurrence of apoptotic cells; also recorded: increase in apoptotic cells beginning at 24 hours and continuing on through 72 hours | – | – | – | – | – | – | – | –
CCCCCCCCCCC(O)C1C=CC2C(=O)N(c3ccccc3)C(=O)C2N1Nc1ccc([N+](=O)[O-])cc1 (stereo not drawn) [A12B4C3, 2-(1-hydroxyundecyl)-1-(4-nitrophenylamino)-6-phenyl-6,7a-dihydro-1H-pyrrolo[3,4-b]pyridine-5,7(2H,4aH)-dione] | – | marked decrease in survival | remain viable | increase in sensitivity to ionizing radiation | increase in the sensitivity to ionizing radiation | lethality under PNKP inhibition was rescued | marked decrease in survival | no effect | sensitive to PNKP disruption
